According to patent US11826364B2, “Treatment for epilepsy” (Katholieke Universiteit Leuven, priority 2017, dated 2023):

What was measured:
zebrafish larvae [1] = assay: Zebrafish pentylenetetrazole (PTZ) seizure model, behavioral analysis; type: in vivo, zebrafish (Danio rerio); conditions: 2 hours incubation; for antiseizure activity at lower concentrations: MTC/2 and MTC/4
Procedure: Experiments were performed as [Add references please: Copmans (2018), ACS chemical neuroscience; Copmans et al. (2018) Neurochem. Int. 112, 124-133; Afrikanova et al. (2013) PLoS One 8, e54166; Orellana-Paucar et al. (2012) Epilepsy Behav 24, 14-22]. In brief, a single 7 dpf larva was placed in each well of a 96-well plate and treated with either VHC (1% DMSO) or test compound in a 100 μl volume. Larvae were incubated in dark for 2 hours at 28° C., whereafter 100 μl of either VHC (embryo medium) or 40 mM PTZ (20 mM working concentration) was added to each well. Next, within 5 minutes the 96-well plate was placed in an automated tracking device (ZebraBox Viewpoint, France) and larval behavior was video recorded for 30 minutes. The complete procedure was performed in dark conditions using infrared light. Total locomotor activity was recorded by ZebraLab software (Viewpoint, France) and expressed in actinteg units, which is the sum of pixel changes detected during the defined time interval (5 minutes). Larval behavior was depicted as mean actinteg units per 5 minutes in the 30 minute recording period and over consecutive time intervals. Data are expressed as mean±SD for single experiments with regards to screening, and as mean±SEM for single experiments and for independent experiments of which the means or data are pooled.
In the first secondary screen three replicate wells were used per sample (100 μg/mL) tested and each experimental plate contained 12 internal control wells. In the second secondary screen six replicate wells were used per sample and concentration tested (100, 33, and 11 μg/mL), again 12 internal control wells were used per experimental plate.

zebrafish larvae [2] = assay: Toxicity evaluation, maximum tolerated concentration (MTC) in zebrafish larvae; type: in vivo, zebrafish (Danio rerio); conditions: highest concentration without death, toxicity or locomotor impairment
Procedure: Maximum tolerated concentration (MTC) was determined prior to further experiments and used as the highest test concentration. Experiments were described as described in Copmans et al. (2018) ACS chemical neuroscience. MTC was investigated by exposing 12 larvae of 6 dpf to a range of concentrations in a 100 μl volume during 18 hours. The following parameters were investigated after 2 and 18 hours of exposure: touch response, morphology, posture, edema, signs of necrosis, swim bladder, and heartbeat.

zebrafish larvae [3] = assay: Non-invasive local field potential (LFP) recordings from the optic tectum, zebrafish PTZ seizure model; type: in vivo, zebrafish (Danio rerio); conditions: MTC (20 μg/mL); 2 hours incubation; 10 min recording
Procedure: Non-invasive LFP recordings were measured from the midbrain (optic tectum) of 7 dpf zebrafish larvae pre-incubated with VHC only, PTZ only, compound and VHC, or compound and PTZ. Experiments were performed as described in Copmans et al. (2018) Neurochem. Int. 112, 124-133;
Copmans (2018) ACS chemical neuroscience. In brief, larvae were incubated for approximately 2 hours with VHC (1% DMSO) or test compound (1% DMSO) in a 100 μL volume. After incubation, an equal volume of VHC (embryo medium) or 40 mM PTZ (20 mM working concentration) was added to the well for 15 minutes prior to recording. These steps occurred at 28° C., while further manipulation and electrophysiological recordings occurred at room temperature (±21° C.). The larva was embedded in 2% low melting point agarose (Invitrogen) and the signal electrode (an electrode inside a soda-glass pipet (1412227, Hilgenberg) pulled with a DMZ Universal Puller (Zeitz, Germany), diameter±20 microns, containing artificial cerebrospinal fluid (ACSF: 124 mM NaCl, 10 mM glucose, 2 mM KCl, 2 mM MgSO4, 2 mM CaCl2, 1.25 mM KH2PO4, and 26 mM NaHCO3, 300-310 mOsmols)) was positioned on the skin covering the optic tectum. A differential extracellular amplifier (DAGAN, USA) amplified the voltage difference between the signal (measured by the signal electrode) and the reference electrode. The differential signal was band pass filtered at 0.3-300 Hz and digitized at 2 kHz via a PCI-6251 interface (National instruments, UK) using WinEDR (John Dempster, University of Strathclyde, UK). A grounding electrode grounded the electrical system. All electrodes were connected with ACSF. Each recording lasted 600 seconds. Manual analysis was completed by quantification of the number, cumulative duration, and mean duration of epileptiform-like events with Clampfit 10.2 software (Molecular Devices Corporation, USA). An electrical discharge was considered epileptiform if it was a poly-spiking event comprising at least 3 spikes with a minimum amplitude of three times the baseline amplitude and a duration of at least 100 milliseconds. Data are expressed as mean±SD.

NMRI mice = assay: Mouse 6-Hz (44 mA) psychomotor seizure model; type: in vivo; conditions: 30 min before stimulation; for mean seizure duration (±SD): Example 8; for mean seizure duration: Example 7
Procedure: Experiments were performed as described in Copmans et al. (2018) ACS chemical neuroscience. […] Mice were manually restrained and a drop of ocular anesthetic (0.5% lidocaine) was applied to the corneas before stimulation. Following electrical current stimulation, the mouse was released in a transparent cage for behavioral observation, which was video-recorded. […] In addition, facial and mouth jerking as well as head nodding were observed occasionally. Seizure durations were measured during the experiment by experienced researchers, familiar with the different seizure behaviors. In addition, seizure durations were determined by blinded video analysis to confirm or correct the initial observations. Data are expressed as mean±SD.

[4] = Solubility in the injection solvent (PEG200:DMSO 1:1); type: physicochemical; conditions: 20 mg/kg dose
Procedure: For experiments with zebrafish larvae, dry samples and compounds were dissolved in 100% dimethyl sulfoxide (DMSO, spectroscopy grade) as 100-fold concentrated stocks and diluted in embryo medium to a final concentration of 1% DMSO content, except for PTZ which was dissolved in embryo medium (0% DMSO). Control groups were treated with 1% DMSO (VHC) in accordance with the final solvent concentration of tested samples or compounds. For mice experiments, a mixture of poly-ethylene glycol M.W. 200 (PEG200) and 100% DMSO (spectroscopy grade) (1:1 PEG200:DMSO) was used as solvent and VHC. Pentylenetetrazole and valproate were purchased from Sigma-Aldrich.

SMILES | PTZ-induced seizure behavior in 5 min time intervals (zebrafish larvae [1]; at the tested concentration) | antiseizure activity at lower concentrations (zebrafish larvae [1]) | PTZ-induced seizure behavior in 5 min time intervals (zebrafish larvae [1]; at MTC) | PTZ-induced seizure behavior in the 30 min recording period (zebrafish larvae [1]; at MTC) | maximum tolerated concentration (MTC) (zebrafish larvae [2]) [µg/mL] | cumulative duration of PTZ-induced epileptiform events (zebrafish larvae [3]) | number of PTZ-induced epileptiform events (zebrafish larvae [3]) | mean seizure duration (±SD) (NMRI mice; 2.5 mg/kg i.p.) [s] | mean seizure duration (±SD) (NMRI mice; 5 mg/kg i.p.) [s] | mean seizure duration (±SD) (NMRI mice; 10 mg/kg i.p.) [s] | solubility in the solvent [4] | also measured
CC1=Cc2ccc3c(c2CO1)O[C@@H](C(C)C)C3=O [penicisochroman G] | significant reduction |  |  |  |  |  |  |  |  |  |  | 
Cc1cc2ccc3c(c2cn1)OC(C(C)C)C3=O (stereo not shown) [TMC-120A] |  | No significant antiseizure activity | significant reduction | not TMC-120A, significantly lowered | 20 | significantly lowered | significantly lowered | 13 | 20 | 17 | poor solubility | percentage of larvae with PTZ-induced epileptiform activity (zebrafish larvae [3]): significantly lowered the percentage of larvae with PTZ-induced epileptiform activity by more than half; mean seizure duration (±SD) (NMRI mice; 1.25 mg/kg i.p.): 15 s
CC(C)=C1Oc2c(ccc3cc(C)ncc23)C1=O [TMC-120B] |  | No significant antiseizure activity | significant reduction | significantly lowered | 20 | significantly lowered | significantly lowered | 27 | 23.5 | 10 | poor solubility | mean seizure duration (NMRI mice; 2.5 mg/kg i.p.): 27 s; mean seizure duration (NMRI mice; 5 mg/kg i.p.): 23.5 s; mean seizure duration (NMRI mice; 10 mg/kg i.p.): 10 s; mean seizure duration (NMRI mice; 20 mg/kg i.p.): 27.5 s; mean seizure duration (±SD) (NMRI mice; 20 mg/kg i.p.): 27.5 s
Cc1cc2ccc3c(c2cn1)OC(O)(C(C)C)C3=O (stereo not shown) [TMC-120C] | significant reduction |  |  |  |  |  |  |  |  |  |  | PTZ-induced seizure behavior in the 30 min recording period (zebrafish larvae [1]; at the tested concentration): lowered PTZ-induced seizure behavior
CC1=Cc2ccc3c(c2CO1)OC(=C(C)C)C3=O [ustusorane B] | significant reduction |  |  |  |  |  |  |  |  |  |  | 
